Converted amounts (≈) assume the structure as drawn.
Assays:
Assay type in all cases: functional
[1] = test system: Aspergillus niger; assay: Antifungal activity against Aspergillus niger at 50 ug/ml after 72 hrs by agar well diffusion method; details: read-out: DIZ
[2] = test system: Fusarium oxysporum; assay: Antifungal activity against Fusarium oxysporum at 500 ug/ml after 72 hrs by agar well diffusion method; details: read-out: DIZ
[3] = test system: Fusarium oxysporum; assay: Antifungal activity against Fusarium oxysporum at 300 ug/ml after 72 hrs by agar well diffusion method; details: read-out: DIZ
[4] = test system: Fusarium oxysporum; assay: Antifungal activity against Fusarium oxysporum at 200 ug/ml after 72 hrs by agar well diffusion method; details: read-out: DIZ
[5] = test system: Fusarium oxysporum; assay: Antifungal activity against Fusarium oxysporum at 100 ug/ml after 72 hrs by agar well diffusion method; details: read-out: DIZ
[6] = test system: Fusarium oxysporum; assay: Antifungal activity against Fusarium oxysporum at 50 ug/ml after 72 hrs by agar well diffusion method; details: read-out: DIZ
[7] = test system: Rhizoctonia solani; assay: Antifungal activity against Rhizoctonia solani at 500 ug/ml after 72 hrs by agar well diffusion method; details: read-out: DIZ
[8] = test system: Rhizoctonia solani; assay: Antifungal activity against Rhizoctonia solani at 300 ug/ml after 72 hrs by agar well diffusion method; details: read-out: DIZ
[9] = test system: Rhizoctonia solani; assay: Antifungal activity against Rhizoctonia solani at 200 ug/ml after 72 hrs by agar well diffusion method; details: read-out: DIZ
[10] = test system: Rhizoctonia solani; assay: Antifungal activity against Rhizoctonia solani at 100 ug/ml after 72 hrs by agar well diffusion method; details: read-out: DIZ
[11] = test system: Rhizoctonia solani; assay: Antifungal activity against Rhizoctonia solani at 50 ug/ml after 72 hrs by agar well diffusion method; details: read-out: DIZ
[12] = test system: Bacillus subtilis; assay: Antibacterial activity against Bacillus subtilis at 500 ug/ml after 24 hrs by agar well diffusion method; details: read-out: DIZ
[13] = test system: Bacillus subtilis; assay: Antibacterial activity against Bacillus subtilis at 300 ug/ml after 24 hrs by agar well diffusion method; details: read-out: DIZ
[14] = test system: Bacillus subtilis; assay: Antibacterial activity against Bacillus subtilis at 200 ug/ml after 24 hrs by agar well diffusion method; details: read-out: DIZ
[15] = test system: Bacillus subtilis; assay: Antibacterial activity against Bacillus subtilis at 100 ug/ml after 24 hrs by agar well diffusion method; details: read-out: DIZ
[16] = test system: Bacillus subtilis; assay: Antibacterial activity against Bacillus subtilis at 50 ug/ml after 24 hrs by agar well diffusion method; details: read-out: DIZ
[17] = test system: Staphylococcus aureus; assay: Antibacterial activity against Staphylococcus aureus ATCC 6538 at 500 ug/ml after 24 hrs by agar well diffusion method; details: ATCC 6538, 24 h, read-out: DIZ
[18] = test system: Staphylococcus aureus; assay: Antibacterial activity against Staphylococcus aureus ATCC 6538 at 300 ug/ml after 24 hrs by agar well diffusion method; details: ATCC 6538, 24 h, read-out: DIZ
[19] = test system: Staphylococcus aureus; assay: Antibacterial activity against Staphylococcus aureus ATCC 6538 at 200 ug/ml after 24 hrs by agar well diffusion method; details: ATCC 6538, 24 h, read-out: DIZ
[20] = test system: Staphylococcus aureus; assay: Antibacterial activity against Staphylococcus aureus ATCC 6538 at 100 ug/ml after 24 hrs by agar well diffusion method; details: ATCC 6538, 24 h, read-out: DIZ
[21] = test system: Escherichia coli; assay: Antibacterial activity against Escherichia coli ATCC 8739 at 300 ug/ml after 24 hrs by agar well diffusion method; details: ATCC 8739, 24 h, read-out: DIZ
[22] = test system: Escherichia coli; assay: Antibacterial activity against Escherichia coli ATCC 8739 at 200 ug/ml after 24 hrs by agar well diffusion method; details: ATCC 8739, 24 h, read-out: DIZ
[23] = test system: Escherichia coli; assay: Antibacterial activity against Escherichia coli ATCC 8739 at 100 ug/ml after 24 hrs by agar well diffusion method; details: ATCC 8739, 24 h, read-out: DIZ
[24] = test system: Escherichia coli; assay: Antibacterial activity against Escherichia coli ATCC 8739 at 50 ug/ml after 24 hrs by agar well diffusion method; details: ATCC 8739, 24 h, read-out: DIZ
[25] = test system: Klebsiella pneumoniae; assay: Antibacterial activity against Klebsiella pneumoniae at 500 ug/ml after 24 hrs by agar well diffusion method; details: read-out: DIZ
[26] = test system: Klebsiella pneumoniae; assay: Antibacterial activity against Klebsiella pneumoniae at 300 ug/ml after 24 hrs by agar well diffusion method; details: read-out: DIZ
[27] = test system: Klebsiella pneumoniae; assay: Antibacterial activity against Klebsiella pneumoniae at 200 ug/ml after 24 hrs by agar well diffusion method; details: read-out: DIZ
[28] = test system: Klebsiella pneumoniae; assay: Antibacterial activity against Klebsiella pneumoniae at 50 ug/ml after 24 hrs by agar well diffusion method; details: read-out: DIZ
[29] = test system: Escherichia coli; assay: Antibacterial activity against Escherichia coli ATCC 8739 at 500 ug/ml after 24 hrs by agar well diffusion method; details: ATCC 8739, 24 h, read-out: DIZ
[30] = test system: Klebsiella pneumoniae; assay: Antibacterial activity against Klebsiella pneumoniae at 100 ug/ml after 24 hrs by agar well diffusion method; details: read-out: DIZ
[31] = test system: Staphylococcus aureus; assay: Antibacterial activity against Staphylococcus aureus ATCC 6538 at 50 ug/ml after 24 hrs by agar well diffusion method; details: ATCC 6538, 24 h, read-out: DIZ
[32] = test system: Aspergillus flavus; assay: Antifungal activity against Aspergillus flavus at 50 ug/ml after 72 hrs by agar well diffusion method; details: read-out: DIZ
[33] = test system: Aspergillus flavus; assay: Antifungal activity against Aspergillus flavus at 100 ug/ml after 72 hrs by agar well diffusion method; details: read-out: DIZ
[34] = test system: Aspergillus flavus; assay: Antifungal activity against Aspergillus flavus after 72 hrs by agar well diffusion method
[35] = test system: Aspergillus niger; assay: Antifungal activity against Aspergillus niger after 72 hrs by agar well diffusion method
[36] = test system: Fusarium oxysporum; assay: Antifungal activity against Fusarium oxysporum after 72 hrs by agar well diffusion method
[37] = test system: Rhizoctonia solani; assay: Antifungal activity against Rhizoctonia solani after 72 hrs by agar well diffusion method
[38] = test system: Bacillus subtilis; assay: Antibacterial activity against Bacillus subtilis after 24 hrs by agar well diffusion method
[39] = test system: Staphylococcus aureus; assay: Antibacterial activity against Staphylococcus aureus ATCC 6538 after 24 hrs by agar well diffusion method; details: ATCC 6538, 24 h
[40] = test system: Escherichia coli; assay: Antibacterial activity against Escherichia coli ATCC 8739 after 24 hrs by agar well diffusion method; details: ATCC 8739, 24 h
[41] = test system: Klebsiella pneumoniae; assay: Antibacterial activity against Klebsiella pneumoniae after 24 hrs by agar well diffusion method
[42] = test system: Aspergillus flavus; assay: Antifungal activity against Aspergillus flavus at 500 ug/ml after 72 hrs by agar well diffusion method; details: read-out: DIZ
[43] = test system: Aspergillus flavus; assay: Antifungal activity against Aspergillus flavus at 300 ug/ml after 72 hrs by agar well diffusion method; details: read-out: DIZ
[44] = test system: Aspergillus flavus; assay: Antifungal activity against Aspergillus flavus at 200 ug/ml after 72 hrs by agar well diffusion method; details: read-out: DIZ
[45] = test system: Aspergillus niger; assay: Antifungal activity against Aspergillus niger at 500 ug/ml after 72 hrs by agar well diffusion method; details: read-out: DIZ
[46] = test system: Aspergillus niger; assay: Antifungal activity against Aspergillus niger at 300 ug/ml after 72 hrs by agar well diffusion method; details: read-out: DIZ
[47] = test system: Aspergillus niger; assay: Antifungal activity against Aspergillus niger at 200 ug/ml after 72 hrs by agar well diffusion method; details: read-out: DIZ
[48] = test system: Aspergillus niger; assay: Antifungal activity against Aspergillus niger at 100 ug/ml after 72 hrs by agar well diffusion method; details: read-out: DIZ

- MIC [34]: 40 µg/mL (≈ 116 µM)
- MIC [35]: 40 µg/mL (≈ 116 µM)
- MIC [36]: 35 µg/mL (≈ 102 µM)
- MIC [37]: 35 µg/mL (≈ 102 µM)
- MIC [38]: 30 µg/mL (≈ 87.1 µM)
- MIC [39]: 25 µg/mL (≈ 72.6 µM)
- MIC [40]: 15 µg/mL (≈ 43.6 µM)
- MIC [41]: 15 µg/mL (≈ 43.6 µM)
Compound: CCn1cc(C=C2C(=O)OC(C)(C)OC2=O)c2cc([N+](=O)[O-])ccc21
- zone of inhibition at 50 µg/mL [1]: 6 mm
- zone of inhibition at 500 µg/mL [2]: 29 mm
- zone of inhibition at 300 µg/mL [3]: 21 mm
- zone of inhibition at 200 µg/mL [4]: 16 mm
- zone of inhibition at 100 µg/mL [5]: 12 mm
- zone of inhibition at 50 µg/mL [6]: 7 mm
- zone of inhibition at 500 µg/mL [7]: 29 mm
- zone of inhibition at 300 µg/mL [8]: 21 mm
- zone of inhibition at 200 µg/mL [9]: 16 mm
- zone of inhibition at 100 µg/mL [10]: 12 mm
- zone of inhibition at 50 µg/mL [11]: 7 mm
- zone of inhibition at 500 µg/mL [12]: 22 mm
- zone of inhibition at 300 µg/mL [13]: 14 mm
- zone of inhibition at 200 µg/mL [14]: 11 mm
- zone of inhibition at 100 µg/mL [15]: 9 mm
- zone of inhibition at 50 µg/mL [16]: 4 mm
- zone of inhibition at 500 µg/mL [17]: 26 mm
- zone of inhibition at 300 µg/mL [18]: 16 mm
- zone of inhibition at 200 µg/mL [19]: 13 mm
- zone of inhibition at 100 µg/mL [20]: 10 mm
- zone of inhibition at 300 µg/mL [21]: 20 mm
- zone of inhibition at 200 µg/mL [22]: 15 mm
- zone of inhibition at 100 µg/mL [23]: 13 mm
- zone of inhibition at 50 µg/mL [24]: 8 mm
- zone of inhibition at 500 µg/mL [25]: 32 mm
- zone of inhibition at 300 µg/mL [26]: 23 mm
- zone of inhibition at 200 µg/mL [27]: 18 mm
- zone of inhibition at 50 µg/mL [28]: 9 mm
- zone of inhibition at 500 µg/mL [29]: 31 mm
- zone of inhibition at 100 µg/mL [30]: 14 mm
- zone of inhibition at 50 µg/mL [31]: 6 mm
- zone of inhibition at 50 µg/mL [32]: 4 mm
- zone of inhibition at 100 µg/mL [33]: 9 mm
- zone of inhibition at 500 µg/mL [42]: 23 mm
- zone of inhibition at 300 µg/mL [43]: 15 mm
- zone of inhibition at 200 µg/mL [44]: 12 mm
- zone of inhibition at 500 µg/mL [45]: 25 mm
- zone of inhibition at 300 µg/mL [46]: 18 mm
- zone of inhibition at 200 µg/mL [47]: 14 mm
- zone of inhibition at 100 µg/mL [48]: 10 mm
